This is an account of results in patent US6485975B1, “Method for regenerating viable and fertile citrus plants by tissue culture from explants” (Council of Scientific and Industrial Research, priority 2000, dated 2002).

The subject of experiment [1] is isolated shoots of Citrus aurantifolia. Description: Proliferation of isolated shoots of Citrus aurantifolia. The experiment is classed as cell-based. The conditions noted are these: for Condition of shoots / Growth of regenerated shoots Length in cm: 30 days; for No. of off-shoots regenerated: culture period 30 days, mean of 5 cultures ± S.E. The text has this:
(§1) g) proliferating the meristem-regenerated 1.5-cm-long shoots of C. aurantifolia and C. sinensis by repeated subculture in medium-A and medium-B, respectively to obtain well-developed shoots to the extent of an average 10 shoots and 6 shoots, respectively, within 4 subcultures of 30 days each,
(§2) Proliferation of Isolated Shoots Obtained from Regenerated Nodal Stem Segments of Mature Field-grown Trees of Citrus aurantifolis and C. sinensis
(§3) Proliferation of isolated shoots was obtained in presence of BAP and an auxin, LAA or NAA employing the medium-A (Table I) for C. aurantifolia, and medium-B (Table I) for C. sinensis, but not vice-versa, where both media A and B, devoid of growth hormones comprised the basal media. […] Responses of the isolated shoots to some selected combinations of BAP with IAA or NAA are given in the Table 1, which lead to the selection of specific nutrient media for optimum proliferation of shoots of these two Citrus species.
The maximum number of offshoots produced per explant of a shoot tip of C. aurantifolia was 7 in 0.75 mg 1^−1 BAP and 0.25 mg 1^−1 IAA, however, the shoots not only were restricted in growth, but also substantial intervening callus was formed. Similarly, in the concentrations of 0.5 and 1.0 mg 1^−1 BAP, particularly the second aspect of response remained equally prominent, i.e., growth restriction of offshoots and intervening callusing during their differentiation. […] Thus, the 0.25 mg 1^−1 concentration of both BAP and IAA was selected comprising the medium-A for proliferation of isolated shoots originally regenerated from nodal stem segments of mature field-grown trees of C. aurantifolia.

Experiment [2] concerns excised shoot meristems of Citrus aurantifolia and C. sinensis. Description: Growth of excised shoot meristems, both Citrus species not distinguished. The experiment is classed as cell-based. From the text:
e) excising the meristem domes along with youngest 2-3 leaf primordia ranging in length between 0.2-0.5 mm from the aseptically grown shoots followed by their culture on the liquid medium-C under the same controlled light and temperature conditions as in step (c) at least for a period of 15 days to let them attain a length of ca. 8 mm, f) subculturing the meristem-regenerated shoots on filter paper bridge employing liquid medium-D in order to obtain healthy shoots of an average length of about 1.5 cm without intervening callusing within a period of 20-25 days, Since for growth, an excised shoot meristem may require exogenous supply of mainly three growth hormones, viz., a cytokinin, an auxin and a gibberellin, these were provided individually at 3 concentrations (mg 1^−1) each and in certain combinations as given below using the medium-C (Table I) devoid of IAA and GA as the basal medium: 0.1 BAP; 0.25 BAP; 0.5 BAP; 0.1 IAA; 0.25 IAA; 0.5 IAA: 5 GA; 10 GA; 15 GA; 0.1 BAP+0.1 IAA; 0.25 BAP+0.1 IAA; 0.5 BAP+0.1 IAA; 5 GA+0.1 IAA; 10 GA+0.1 IAA and 15 GA+0.1 IAA. […] In the next step, on the basis of the responses obtained, shoot meristems were cultured in all the afore-said 3 concentrations of BAP (0.1, 0.25 and 0.5 mg 1^−1) or GA (5, 10 and 15 mg 1^−1) along with 0.1 mg 1^−1 IAA. […] In this treatment, growth of meristem on nutrient agar as well as in liquid medium using filter paper bridge was compared. Shoot meristems grew far better on filter paper bridge than on nutrient agar in the same treatment (table 3). […] Higher or lower than 0.1 mg 1^−1 concentrations of BAP were not conducive to normal growth of shoot meristems.

For experiment [3], the system named is isolated shoots of C. sinensis. In words: Proliferation of isolated shoots of C. sinensis. The experiment is classed as cell-based, Citrus sinensis. Particulars: for Condition of shoots / Growth of regenerated shoots Length in cm: 30 days; for No. of off-shoots regenerated: culture period 30 days, mean of 5 cultures ± S.E.
Excerpt: as §1, §2, §3
Likewise, 0.25 mg 1^−1 concentration of BAP and 0.5 mg 1^−1 of NAA were selected comprising the medium-B for optimum proliferation of shoots of C. sinensis in view of the same two criteria, viz., moderately high number of offshoot production with good growth and their differentiation without any intervening callusing.

Experiment [4] has as its system meristem-regenerated shoots of Citrus aurantifolia. In words: Root induction in meristem-regenerated shoots of Citrus aurantifolia. In kind it is cell-based. The conditions noted are these: 0.25 mg l^-1 of the auxin, used with 1 mg l^-1 chlorogenic acid. From the text: (§4) h) rooting of the isolated well-developed shoots of C. aurantifolia to the extent of 100% in 15 days, and of C. sinensis to the extent of 90% in 25 days, in agarified media-E and F respectively.
The meristem-regenerated well-developed shoots of C. aurantifolia easily rooted in medium-E (Table I) selected on the basis of the formulations used earlier during the investigations on Citrus tissue culture in this Laboratory (Chaturvedi, H. C. 1979. Tissue culture of economic plants. In: Progress in Plant Research. Eds. T. N. Khoshoo and P. K. K. Nair, Today and Tomorrow's Publisher, New Delhi, Vol.1, pp.265-288; Chaturvedi, H. C. and Sharma, A. K. 1988. Citrus tissue culture. In: Proc. Natl. Seminar on Plant Tissue Culture, I.C.A.R., New Delhi, pp.36-46). The basic differences of the root inducing media from the shoot proliferation media of Citrus are, comparatively lower concentrations of nitrogen, calcium and magnesium in the former. […] Even its shoots raised from seedling explants have been reported to be intractable-to-root in vitro (Duran-vila, N., Ortega, V. and Navarro, L. 1989. Morphogenesis and tissue cultures of three citrus species. Plant Cell, Tissue and Organ Culture, 16: 123-133).

For experiment [5], the system named is meristem-regenerated shoots of C. sinensis. In words: Root induction in meristem-regenerated shoots of C. sinensis. In kind it is cell-based, Citrus sinensis. Particulars: same treatments as for C. aurantifolia (0.25 mg l^-1 auxin, 1 mg l^-1 chlorogenic acid).
Excerpt: as §4
The medium-E, which was found effective for inducing desirable rooting in a number of Citrus species, including its rootstocks, when was found deficient for promoting root induction in the presence of multiple combinations of auxins, viz., IAA. IPA, IBA and NAA without or with phenolic acids, namely, phloroglucinol and chlorogenic acid, it was variously modified. The modifications included, increase in the concentrations of thiamine-HCl, pyridoxine-HCl and nicotinic acid to 2.5, 0.5 and 0.5 mg 1^−1, respectively, addition of some other root promoting vitamins, like, riboflavin, folic acid and d-biotin at the concentration of 0.1 mg 1^−1 each as also 15 mg 1^−1 L-arginine.
The rooting responses of well-developed isolated shoots of C. sinensis to various auxins used without and with phenolic acids employing the medium-E (Table I) devoid of auxins and the phenolic acid as the basal medium, are presented in Table 3. A combination of three auxins, namely, IAA, NAA and IPA along with a phenolic acid, namely, chlorogenic acid or phloroglucinol was essential for root induction.

The mark [6] stands for this setting: BAP (0.1, 0.25, 0.5 mg l^-1) or GA (5, 10, 15 mg l^-1) along with 0.1 mg l^-1 IAA.
Setting [7] is: individually at lower concentrations: IAA 0.1 mg l^-1 or GA 5 mg l^-1.

“And” between values parts separate entries of the source, which are not always exact repeats. Identical values can stand only once.

As for `c1ccc(CNc2ncnc3nc[nH]c23)cc1` [BAP, 6-benzylaminopurine], the Condition of shoots entry in experiment [1] (BAP 0.1 mg l^-1 with 0.25 IAA) is on record as “A few well-develop-”; in experiment [1] (BAP 0.25 mg l^-1 with 0.25 IAA) it was “Well-developed”; in experiment [3] (BAP 0.1 mg l^-1 with 0.5 NAA), “A few well-”; in experiment [3] (BAP 0.25 mg l^-1 with 0.5 NAA), “Well-developed”; in experiment [3] (BAP 0.5 mg l^-1 with 0.5 NAA) it was “Well-developed”. In addition, the “Growth of regenerated shoots Length in cm” value in experiment [1] (BAP 0.1 mg l^-1 with 0.25 IAA) was determined as 1.44 ± 0.14 cm; in experiment [1] (BAP 0.25 mg l^-1 with 0.25 IAA), 1.40 ± 0.13 cm; in experiment [1] (BAP 0.5 mg l^-1 with 0.25 IAA), 0.99 ± 0.10 cm; in experiment [1] (BAP 0.75 mg l^-1 with 0.25 IAA) it was 0.86 ± 0.08 cm; in experiment [1] (BAP 1.0 mg l^-1 with 0.25 IAA), 0.76 ± 0.10 cm; in experiment [3] (BAP 0.1 mg l^-1 with 0.5 NAA) it was 1.16 ± 0.27 cm. In addition, the “Growth of regenerated shoots Length in cm” value in experiment [3] (BAP 0.25 mg l^-1 with 0.5 NAA) was found to be 1.65 ± 0.20 cm; in experiment [3] (BAP 0.5 mg l^-1 with 0.5 NAA), 1.08 ± 0.12 cm; in experiment [3] (BAP 0.75 mg l^-1 with 0.5 NAA), 0.78 ± 0.10 cm; in experiment [3] (BAP 1.0 mg l^-1 with 0.5 NAA) it was 0.75 ± 0.08 cm. Also, the “No. of off-shoots regenerated” value in experiment [1] (BAP 0.1 mg l^-1 with 0.25 IAA) was 3.6 ± 0.40; in experiment [1] (BAP 0.25 mg l^-1 with 0.25 IAA), 5.8 and 5.8 ± 0.58; in experiment [1] (BAP 0.5 mg l^-1 with 0.25 IAA) it was 5.4 ± 1.02; in experiment [1] (BAP 0.75 mg l^-1 with 0.25 IAA) it was 7 and 7.0 ± 0.44; in experiment [1] (BAP 1.0 mg l^-1 with 0.25 IAA) it was 5.6 ± 1.40; in experiment [3] (BAP 0.1 mg l^-1 with 0.5 NAA), 1.8 ± 0.37. For the same compound, the “No. of off-shoots regenerated” value in experiment [3] (BAP 0.25 mg l^-1 with 0.5 NAA) was 2.6 and 2.6 ± 0.24; in experiment [3] (BAP 0.5 mg l^-1 with 0.5 NAA), 3.4 ± 0.44; in experiment [3] (BAP 0.75 mg l^-1 with 0.5 NAA) it was 3.2 ± 0.73; in experiment [3] (BAP 1.0 mg l^-1 with 0.5 NAA) it was 2.0 ± 0.31. For the same compound, the “response of shoot meristems” value in experiment [2] (setting [6]) is listed as “became abnormally thick”. Besides, in experiment [2] (BAP individually, particularly 0.1 mg l^-1), the “delay of necrosis of shoot meristem” value was 10 to 15 days.
With `C=C1C[C@]23C[C@@]1(O)CC[C@H]2[C@@]12C=C[C@H](O)[C@@](C)(C(=O)O1)[C@H]2[C@@H]3C(=O)O` [GA, gibberellic acid], the “response of shoot meristems” value in experiment [2] (setting [6]) was “registered some growth”; in experiment [2] (setting [7]), “remained fresh with a little increase in their length”.
For `O=C(O)Cc1c[nH]c2ccccc12` [IAA, indole-3-acetic acid], the “response of shoot meristems” value in experiment [2] (setting [7]) is reported as “remained fresh with a little increase in their length”. Also, the results for the rooting result in experiment [4] and in experiment [5] were “Hundred percent” and “did not root”, respectively.
Regarding `O=C(O)CCCc1c[nH]c2ccccc12` [IBA, indole-3-butyric acid], the values for the rooting entry in experiment [4] and in experiment [5] were “Hundred percent” and “did not root”, respectively.
`O=C(O)CCc1c[nH]c2ccccc12` [IPA, indole-3-propionic acid]: the rooting result is on record as “Hundred percent” in experiment [4] and “did not root” in experiment [5].
In the same order, the values of `O=C(O)Cc1cccc2ccccc12` [NAA, α-naphthalene-acetic acid] are “Hundred percent” and “did not root”.
